1 molecule from patent US20230405001A1, “TREATMENT OR PREVENTION OF HIV INFECTION” (Janssen Sciences Ireland Unlimited Company, priority 2020, published 2023) can be followed below.

Series [1] is described as follows: Plasma kinetics in minipigs after single subcutaneous dosing, rilpivirine suspension with or without rHuPH20 (Example 1). It counts as in vivo. As to conditions: minipig. As for the experimental part:
Six minipigs with body weights ranging from 20 to 25 kg at the start of the study were used. The minipigs were fasted overnight before dosing. Three minipigs were dosed subcutaneously in the loin with 0.19 mL of the hyaluronidase solution (10,000 U/mL) followed by 900 mg/3 mL of the rilpivirine nanosuspension at the same injection site (treatment group A). Three minipigs were dosed subcutaneously in the loin with the 900 mg/3 mL of the control rilpivirine suspension (treatment group B—control). The injection volume was 3 mL rilpivirine suspension in both treatment groups. Method—Sequential Administration • 1. Flip-off rHuPH20 solution vial flip cap and wipe with isopropyl alcohol wipe. Allow to dry. Attach an 18 G transfer needle to a 1 mL syringe. • 2. Draw 0.35 mL into the syringe. • 3. Prime the syringe and set liquid level to 0.25 mL in the syringe. • 4. Remove transfer needle and attach syringe cap to 1 mL syringe. • 5. Mix rilpivirine by horizontally shaking the container 30 times over […] approximately 10 s (a back and forth arm movement=2 times). Ensure well mixed/fully re-suspended. • 6. Flip-off rilpivirine vial flip cap and wipe with isopropyl alcohol wipe. Allow to dry. • 7. Attach 18 G transfer needle to 5 mL syringe. • 8. Invert vial and draw>3.2 mL into 5 mL syringe mL (or as much as can be removed from vial). Injecting 1-2 mL of air will facilitate draw. • 9. Detach needle and attach a syringe cap to 5 mL syringe • 10. Invert syringe. Wait 5 minutes for bubbles to settle. • 11. Attach a winged infusion set to the rHuPH20 1 mL syringe. Invert syringe and prime off air so that liquid forms at the tip of the needle. (0.19 mL of rHuPH20 should be in the line) • 12. Insert the winged infusion set into the subcutaneous tissue of the target injection site by pinching the skin and inserting the needle at a 30-45 degree angle. • 13. Release the pinch. • 14. UNSCREW rHuPH20 syringe from infusion set maintaining the needle in the skin. […] It is advisable to have this syringe prepared while the technician is inserting the rHuPH20 infusion line. • 15. Remove the syringe cap from the 5 mL syringe with rilpivirine. Remove air and set the dose at 3.2 mL. • 16. Attach rilpivirine filled syringe to the open end of the infusion set. • 17. […] Plasma samples were analysed individually by means of a validated LC-MS/MS method. Pharmacokinetic Data Analysis • The pharmacokinetic profile of the blood plasma samples was evaluated using non-compartmental pharmacokinetic analysis (using individual Cp vs time profiles). Mean plasma concentrations and PK parameters (Cmax, Tmax, t1/2 and AUC values) were measured and the results are provided in Table 1.

The nature of series [2]: Plasma kinetics in minipigs over 6 months after single subcutaneous dosing, sequential, admixed or control (Example 2). The following applies: minipig, sc, 1830 mg; for AUC(0-t): single s.c. about 1800 mg/6 mL. It counts as in vivo. How it is done:
Nine minipigs with body weights ranging from 17 to 21 kg at the start of the study were used. The minipigs were fasted overnight before dosing. The minipigs were anaesthetized with propofol before dosing. Three minipigs were dosed subcutaneously in the loin with 0.44 mL of the hyaluronidase solution (10,000 U/mL) followed by 1818 mg/6.06 mL of the rilpivirine nanosuspension at the same injection site (treatment group A—sequential).
Three minipigs were dosed subcutaneously in the loin with the 1816 mg/6.5 mL admixed hyaluronidase solution (10,000 U/mL)+rilpivirine suspension (treatment group B— admixed). Three minipigs were dosed subcutaneously in the loin with the 1830 mg/6.1 mL of the control rilpivirine suspension (treatment group C—control). Vetbond 3M surgical sealant was used to seal the injection site to limit any leakage if necessary.
The control rilpivirine suspension was prepared and administered by the following method. • 1. Mix rilpivirine by horizontally shaking the container 30 times over approximately 25 cm within approximately 10 s (a back and forth arm movement=2 times). Ensure well mixed/fully re-suspended. • 2. Flip-off rilpivirine vial flip cap and wipe with isopropyl alcohol wipe. Allow to dry. • 3. Repeat steps 1-2 with a 2nd vial of rilpivirine. If there is a low draw, or unexpected amount of air/settling after draw, a 3rd vial may need to be prepared to ensure the proper dose level can be filled into the syringe. • 4. Attach 18 G transfer needle to 10 mL syringe. • 5. Invert vial and draw>3.2 mL into 10 mL syringe (or as much as can be removed from vial). Injecting 1-2 mL of air will facilitate draw. • Repeat step 5 with the 2nd vial so that at approximately 6.5 mL of drug product is in the 10 mL syringe. Important: see note in (step 3) about preparing a 3rd vial in case of low volume draw. • 6. Detach needle and attach a syringe cap to 10 mL syringe • 7. Wait 5 minutes for bubbles to settle with syringe inverted. • 8. Remove syringe cap, invert syringe prime off air. • 9. Attach a winged infusion set. • 10. Set dose at 6.1 mL after filling infusion set line until liquid forms at tip of needle (0.44 mL undeliverable/dead volume will be in infusion set). • 11. Insert the winged infusion set into the subcutaneous tissue of the target injection site by pinching the skin and inserting the needle at a 30-45 degree angle. • 12. Release the pinch. • 13. Inject over 2 minutes at a constant rate until the syringe plunger bottoms out • 14. Remove the winged infusion set and dispose. • 15. Record any site leakage.
The sequential administration of hyaluronidase solution and then rilpivirine suspension was performed according to the following method. • 1. Flip-off rHuPH20 solution vial flip cap and wipe with isopropyl alcohol wipe. Swirl vial. Allow vial stopper to dry. […]

As usually defined, the Cmax is the maximum level reached in the sampled fluid or tissue. In turn, `Cc1cc(/C=C/C#N)cc(C)c1Nc1ccnc(Nc2ccc(C#N)cc2)n1` [Rilpivirine, 4-[[4-[[4-[(1E)-2-cyanoethenyl]-2,6-dimethylphenyl]amino]-2-pyrimidinyl]amino]benzonitrile] had a λz in series [1] (single s.c. 900 mg/3 mL, N=3) of 0.0009 ± 0.00009 h⁻¹. For the same molecule, the Tlast in series [1] (single s.c. 900 mg/3 mL, median, N=3) came to 2160 h. Moreover, the AUC(0-t) worked out at 22300 ± 2930 ng·h/mL in series [1] (plasma, sc, single s.c. 900 mg/3 mL, N=3); 22000 ng·h/mL in series [2] (N=3, read-out: Mean AUC0-1 months); 78300 ng·h/mL in series [2] (N=3, read-out: Mean AUC0-6 months). Further, the Cmax in series [1] (plasma, sc, single s.c. dose in the loin, 900 mg/3 mL rilpivirine suspension, N=3, mean ± SD) was determined as 28.5 ± 9.56 ng/mL; in series [2] (control group C, single animal, at 7 hours post-administration, read-out: Cmax of the excluded outlier minipig) it was 563 ng/mL; in series [2] (single s.c. about 1800 mg/6 mL rilpivirine nanosuspension, N=3, control value excludes an outlier minipig, read-out: Mean Cmax), 49 ng/mL.
